Measured values reported in patent US8227510B2, “Combine use of pterostilbene and quercetin for the production of cancer treatment medicaments” (Universitat de Valencia, priority 2004, dated 2012).
Marks after values point to notes of the source that are not given here.

Legend:
Type in all cases: cell-based, mice
B16M-F10 cells / HSE [1] = assay: Adhesion in vitro of B16M-F10 cells to hepatic sinusoidal endothelium; conditions: for inhibition of adhesion of tumor cells to the endothelium: brief exposure (60 minutes), TNF and IFN present; for Tumor cells Adhesion (%): t-RESV 12 μM, t-PTER 40 μM, QUER 20 μM, 60 minutes exposure, cytokine-treated HSE, no polyphenol = 100%
Text: (§1) C57BL/6J mice were used (male, 10 to 12 weeks old) from IFFA Credo (L'Arbreole, France). The hepatic sinusoidal endothelium (HSE) was separated and identified as described previously (20). The sinusoidal cells were separated in a gradient of 17.5% metrizamide (w/v). The HSE cultures were established and maintained in pyrogen-free DMEM supplemented as described previously for the B16M-F10 cells. Differential adhesion of the endothelial cells to the collagen matrix and washing permitted complete removal of other types of sinusoidal cells (Kupffer's cells, astrocytes, lymphocytes) from the culture flasks.
(§2) The B16M-F10 cells were labeled with 2′,7′-bis-(2-carboxyethyl)-5-(and -6)-carboxyfluorescein acetoxymethyl ester (BCECF-AM; Moleculer Probes, Eugene, Oreg., USA) (10^6 cells were incubated for 20 minutes at 37° C. in 1 ml of DMEM buffered with HEPES that contained 50 μg of BCECF-AM and 5 μl of DMSO). After washing, the cells that contained BCECF-AM were resuspended in DMEM buffered with HEPES without phenol red at a concentration of 2.5×10^6 cells/ml and were added (0.2 ml/well) to the endothelial cell culture (seeded 24 hours previously), as well as to wells of plastic and controls previously treated with collagen. The plates were then incubated at 37° C. and, 20 minutes later, the wells were washed three times with fresh medium, and then their fluorescence was read using a Fluoroskan Ascent FL (Labsystems, Manchester, UK). The number of adhering tumor cells was quantified with arbitrary fluorescence units based on the percentage relative to the initial number of B16M-F10 cells added to the HSE culture (20). The damage caused to the B16M-F10 cells during their adhesion in vitro to the HSE was evaluated as described previously (21) using tumor cells labeled with calcein-AM (Molecular Probes, Eugene, Oreg., USA). The integrity of the B16M-F10 cells cultivated on their own was evaluated by exclusion of trypan blue and measuring the lactate dehydrogenase released to the extracellular medium (22). The other reagents used in the tumoral cytotoxicity experiments were from Sigma.
Recombinant murine TNF- (2×10^7 U/mg of protein) and recombinant murine interferon-(IFN-; 10^5 U/mg of protein) were obtained from Sigma. The concentrated solutions (5×10^5 U TNF-/ml and 25×10^4 U IFN-/ml) were diluted in sterile saline (0.9% NaCl), adjusted to pH 7.0, and stored at 4° C.
In addition to the effect of PTER+QUER on tumor growth, we investigated the antimetastatic potential. The interaction of B16M-F10 and HSE cells was studied in vitro first. On the basis of the results obtained previously, we chose brief periods of exposure (60 minutes) of the metastatic cells to the polyphenols (at the concentrations measured in the plasma after their i.v. administration). Since the interaction of the metastatic cells with the endothelial cells and Kupffer's cells activates the local release of proinflammatory cytokines [promoters of adhesion of cancer cells to the endothelium and of invasion (14, 31)], we investigated the effect of the polyphenols on the adhesion of B16M-F10 cells to the HSE in the presence of TNF- and IFN-—this combination of cytokines induces maximum activation of the HSE (see ref. 20 and the references therein) (Table 3). […] A similar effect (˜60% inhibition of adhesion) was found in the presence of t-PTER (Table 3). […]

B16M-F10 cells / HSE [2] = assay: HSE-induced cytotoxicity on adhering B16M-F10 cells in vitro; conditions: for Tumor cells Cytotoxicity (% of adhering): t-RESV 12 μM, t-PTER 40 μM, QUER 20 μM, after 6 hours of incubation, none 15 ± 2
Text: as §1, §2
Recombinant murine TNF- (2×10^7 U/mg of protein) and recombinant murine interferon-(IFN-; 10^5 U/mg of protein) were obtained from Sigma. […]
HSE cells, previously cultured for 24 hours [±polyphenol(s), added 12 hours from seeding and removed by washing 60 minutes later], were cocultured with B16M-F10 cells previously cultured for 72 hours [±polyphenol(s), as in FIG. 2]. […] In the tests of endothelium-induced cytotoxicity on the B16M-F10 cells, the tumor damage (expressed as the percentage of tumor cells that lost viability during the incubation period of 4-6 hours, see the methodology) was determined after 6 hours of incubation. […]

B16M-F10 cells / HSE [3] = assay: In-vitro invasion of the monolayer of hepatic endothelial cells by B16M-F10 cells; conditions: t-RESV 12 μM, t-PTER 40 μM, QUER 20 μM; 5 days culture; none 157 ± 17
Protocol: The test of invasion of the endothelial cell monolayer by B16M-F10 cells was carried out in accordance with the method of Ohigashi et al. (23) with some modifications. The HSE cells were seeded on culture plates with grids coated with gelatin (1%). When the cells attained confluence, the culture medium was replaced with freshly prepared medium. After 2 hours of incubation, the cultures were washed with DMEM and then the B16M-F10 cells were seeded on the HSE cells, maintaining the culture for 5 days. The invasion capacity of the B16M-F10 cells was measured by counting the number of colonies per 1 cm^2 formed under the HSE monolayer using a phase-contrast microscope.
HSE cells, previously cultured for 24 hours [±polyphenol(s), added 12 hours from seeding and removed by washing 60 minutes later], were cocultured with B16M-F10 cells previously cultured for 72 hours [±polyphenol(s), as in FIG. 2]. Cytokines [100 units of TNF-/ml and 50 units of IFN-/ml, see (20)] or the vehicle (physiological saline) were added to the culture media 12 hours before starting the cocultures. The proportion of adhesion of the tumor cells to the HSE was ˜1:1 in the cultures treated with cytokines in the absence of polyphenols (this value was assigned an adhesion level of 100%). In the experiments of adhesion between B16M-F10 cells and endothelial cells, 20 minutes after adding the B16M-F10 to the HSE, the plates were washed in the manner described in the methodology. In the tests of endothelium-induced cytotoxicity on the B16M-F10 cells, the tumor damage (expressed as the percentage of tumor cells that lost viability during the incubation period of 4-6 hours, see the methodology) was determined after 6 hours of incubation. During the 6-hour incubation period, the percentage viability of the HSE cells was 99-100% in all cases. All of the tests were carried out in the absence or in the presence of t-RESV (12 μM), t-PTER (40 μM), and/or QUER (20 μM). […]

Row | Compound | inhibition of adhesion of tumor cells to the endothelium (B16M-F10 cells / HSE [1]) | Tumor cells Adhesion (%) (B16M-F10 cells / HSE [1]) | Tumor cells Cytotoxicity (% of adhering) (B16M-F10 cells / HSE [2]) | Number of colonies penetrated per cm^2 (B16M-F10 cells / HSE [3]) | increase of the death of B16M-F10 cells induced by the HSE (B16M-F10 cells / HSE [2]; brief exposure (60 minutes))
1 | COc1cc(/C=C/c2ccc(O)cc2)cc(OC)c1 [PTER, pterostilbene] | ~60% | 40 ± 6 % | 19 ± 3* % of adhering | 89 ± 9** per cm^2 | 
2 | O=c1c(O)c(-c2ccc(O)c(O)c2)oc2cc(O)cc(O)c12 [QUER, quercetin] | without affecting the level of adhesion | 98 ± 11% | 52 ± 6** % of adhering | 106 ± 15** per cm^2 | ~48%
3 | Oc1ccc(C=Cc2cc(O)cc(O)c2)cc1 [RESV, resveratrol, reference compound] |  | 53 ± 7 % | 12 ± 3 % of adhering | 104 ± 12** per cm^2 | 
